According to publication PMC5814047, “Peptidic inhibitors of insulin-degrading enzyme with potential for dermatological applications discovered via phage display” (PLoS ONE, 2018):
Several values for one entry are separate records, joined by “and”; a condition that tells them apart may be missing. Equal values may be shown once. Bridge positions count the residues as written; N and C are the ends. Peptide text beside a SMILES is read from it.

What was measured:
[1] = tested on: primary murine skin fibroblasts; assay: Insulin degradation in primary murine skin fibroblasts (ELISA of conditioned medium); type: cell-based; details: for Percent insulin remaining, Mean / Percent insulin remaining: P12-3A 100 uM, 100nM insulin added; for Percent insulin remaining, Mean: N 4; for Percent insulin remaining: conditioned medium, individual replicates
Experimental: Insulin promotes wound healing and overall skin health by affecting a number of processes, including cell proliferation, cell migration, and the production and secretion of ECM components, particularly type I collagen. We therefore assessed the ability of P12-3A to influence these processes in cultured skin fibroblasts and keratinocytes. To that end, primary mouse skin fibroblasts were grown for 4 d in multiple concentrations of insulin in the presence or absence of P12-3A, and insulin concentration over time was monitored by ELISA. […] Finally, the effects of P12-3A on collagen production in were assessed at both the transcriptional and the posttranslational level in confluent monolayers of fibroblasts. After 4 d of treatment with P12-3A (100 μM), mRNA levels for the major form of collagen, alpha-1 type I collagen (COL1A1), were quantified by RT-PCR and found to be increased to ~2.6 times the levels of untreated cells (Fig 4C). To assess overall levels of collagen production and secretion, we quantified levels of hydroxyproline, a modified amino acid present almost exclusively in collagen proteins. […] Western blotting also confirmed that mature, cell-associated collagen levels were increased in the presence of P12-3A (Fig 4E).
Fig 4 Effects of P12-3A on cultured skin cells. A, Insulin concentrations as a function of time in logarithmically growing primary murine skin fibroblasts in the absence or presence of P12-3A (100 μM). […] Data are mean ± SEM of 4 independent replications. *P<0.05, **P<0.01. B, Proliferation of cells in the absence or presence of P12-3A (100 μM). Data are mean ± SEM of 6 independent replications. […] C,D,E, P12-3A (100 μM) potentiates insulin-induced collagen production in skin fibroblasts. Collagen production was assessed by COL1A1 mRNA levels (C), levels of hydroxyproline secreted into the medium (D), and cell-associated mature alpha-1 type I collagen levels detected by Western blotting (E). Data are mean ± SD of 4 independent replications. *P<0.05, **P<0.01. […] Migration of HaCaT cells 48 h after induction of a scratch wound in the presence of the indicated quantities of insulin and/or P12-3A (100 μM). Data are mean ± SEM of 6 independent replications. *P<0.05, **P<0.01.
(§1) IDE activity was quantified by monitoring the degradation of Mca-[…](Dnp) (FRET1, 5 μM), fluoresceinated and biotinylated amyloid ß-protein (FAßB; 500 nM) or recombinant human insulin (50 nM) in PBS supplemented with 0.05% BSA. FRET1 degradation was measured by changes in fluorescence (λex = 340 nm, λem = 420 nm); FAßB degradation was monitored by fluorescence polarization (λex = 488 nm, λem = 525 nm), as described; and insulin degradation was quantified by ELISA. In vitro activity assays incorporated recombinant human IDE (1 nM) purified from bacteria. For quantitation of insulin degradation in primary murine skin fibroblasts, cells (1 x 10^5/well) were plated in 96-well plates and maintained in DMEM supplemented with 10% fetal bovine serum (FBS), 2mM glutamine, penicillin and streptomycin. After addition of insulin (10 nM or 100 nM), samples of conditioned medium were removed daily and quickly frozen, then insulin levels were quantified in parallel by ELISA according to manufacturer’s recommendations (Crystal Chem, Downers Grove, IL, USA). Assessment of the activity of P12-3A against a variety of matrix-metalloproteases was conducted using the Matrix Metalloproteinase (MMP) Inhibitor Profiling Kit, Fluorometric RED (Enzo Life Sciences, Inc., Farmingdale, NY, USA) according to manufacturer’s recommendations using the broad-spectrum MMP inhibitor, NNGH, as a positive control.

[2] = tested on: multiple peptidases of different protease classes; assay: Activity on additional proteases, FAßB degradation assay; type: biochemical; set-up: concentration or dose not given beside the values; details: for % activity relative to DMSO-only and no-enzyme controls, Mean: N 8; for % activity relative to DMSO-only and no-enzyme controls, single runs: each run mean of quadruplicates
Experimental: as §1
Supplementary file pone.0193101.s004.tif: S4 Fig Selectivity of P12-3A for IDE vis-à-vis other proteases. Activity of P12-3A (100 μM) against (A) multiple matrix-metalloproteases (MMPs) and (B) multiple peptidases of different protease classes. […] Data are mean ± SD, n = 8–16 per group. P<0.05 by 2-tailed Student’s t-test. […] See Materials and Methods for details. NEP, neprilysin; mCatD, murine cathepsin D; hCatD, human cathepsin D. (TIF) Click here for additional data file.

15 different proteases = assay: Selectivity against 15 different proteases (S4 Fig); type: biochemical; details: P12-3A 100 μM
Experimental: Taken together with the potency of all peptides against insulin (Table 1), we concluded that P12-3A represented the best inhibitor for further studies, and a highly purified, deliberately cyclized version (Fig 3A) was synthesized. […] Based on its potency, stability and selectivity for IDE, P12-3A was selected for use in downstream assays.
as §1, with “Assessment of the activity of P12-3A against a variety of matrix-metalloproteases was conducted using the Matrix Metalloproteinase (MMP) Inhibitor Profiling Kit, Fluorometric RED (Enzo Life Sciences, Inc., Farmingdale, NY, USA) according to manufacturer’s recommendations using the broad-spectrum MMP inhibitor, NNGH, as a positive control.” left out

cultured skin cells = assay: Toxicity in cell culture experiments; type: cell-based
Description: Although a variety of potent and selective IDE inhibitors have been developed, current inhibitors are difficult to synthesize, expensive to generate and/or contain chemical moieties or constituents with established or undetermined potential for toxicity. Due to these and other considerations, existing IDE inhibitors are poorly suited for topical applications. To overcome these limitations, in the present study we aimed to develop peptidic inhibitors of IDE suitable for use in wound healing or cosmetic applications. […] To that end, we used phage display technology to select for a range of peptides that bind to IDE with strong affinity, which were then screened for resistance to degradation by IDE.

**Q.** Which results are given for `CC(C)C[C@H](NC(=O)[C@H](CO)NC(=O)[C@@H](N)CCC(N)=O)C(=O)N1CCC[C@H]1C(=O)N[C@@H](Cc1c[nH]c2ccccc12)C(=O)N[C@H]1CSSC[C@@H](C(=O)N[C@H](C(=O)N[C@H](C(N)=O)[C@@H](C)O)C(C)C)NC(=O)[C@H](Cc2c[nH]cn2)NC(=O)[C@@H]2CCCN2C(=O)[C@H](Cc2ccc(O)cc2)NC1=O` [P12-3A] (H-QSLPWCYPHCVT-NH2; disulfide 6-10 (inferred))?
**A.** insulin levels over time in cells ([1]; 100 μM P12-3A, 10 nM insulin, up to day 4, logarithmically growing cells): remain constant; Percent insulin remaining, Mean ([1]; t 0 d): 100.0%; Percent insulin remaining ([1]; t 0 d): 85.1403% and 114.724% and 102.178% and 97.9576%; Percent insulin remaining, Mean ([1]; t 1 d): 102.0%; Percent insulin remaining ([1]; t 1 d): 95.514% and 88.3018% and 126.115% and 98.0694%; Percent insulin remaining, Mean ([1]; t 2 d): 97.0%; Percent insulin remaining ([1]; t 2 d): 100.082% and 83.3067% and 102.861% and 101.75%; Percent insulin remaining, Mean ([1]; t 3 d): 91.0%; Percent insulin remaining ([1]; t 3 d): 84.576% and 69.9969% and 96.4916% and 112.935%; Percent insulin remaining, Mean ([1]; t 4 d): 96.0%; Percent insulin remaining ([1]; t 4 d): 100.148% and 97.4317% and 103.413% and 83.0078%; % activity relative to DMSO-only and no-enzyme controls, Mean ([2]; Plasmin): 102.2%; % activity relative to DMSO-only and no-enzyme controls, single runs ([2]; Plasmin): 81.4012% and 90.4633% and 101.45% and 148.471% and 93.7572% and 91.0067% and 95.3568% and 115.381%; % activity relative to DMSO-only and no-enzyme controls, Mean ([2]; Trypsin): 97.0%; % activity relative to DMSO-only and no-enzyme controls, single runs ([2]; Trypsin): 89.0897% and 97.7425% and 98.0394% and 101.611% and 90.6127% and 100.837% and 98.0681% and 99.896%; inhibition against 15 different proteases (15 different proteases): essentially no inhibition; toxicity in cell culture experiments (cultured skin cells): no evidence of toxicity
